In the supplement of paper PMC10331698:
± gives the standard deviation of the averaged measurements.

Key:
Assay in all cases: level (log10 ratio to DMSO vehicle control); higher = higher biomarker level / cell amount than vehicle control
Settings in all cases: in DMSO
1-(Perfluorohexyl)octane = compound: CCCCCCCCC(F)(F)C(F)(F)C(F)(F)C(F)(F)C(F)(F)C(F)(F)F [1-(Perfluorohexyl)octane]
Method: (§1)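 BioMAP Diversity Plus panel of 12 human primary cell co-culture systems (3C, 4H, LPS, SAg, BT, BF4T, BE3C, CASM3C, HDF3CGF, KF3CT, MyoF, Mphg). Compounds were added 1 h before stimulation and left for 24 h (MyoF 48 h; BT 72 h for soluble read-outs or 6 d for IgG). Biomarkers were read by ELISA, cytotoxicity by SRB, PBMC viability and proliferation by Alamar Blue. Each well value was divided by the mean of 8 DMSO control wells on the same plate and log10 transformed; duplicate blinded samples were tested at 4 concentrations.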

Perfluorooctanamidine = compound: N=C(N)C(F)(F)C(F)(F)C(F)(F)C(F)(F)C(F)(F)C(F)(F)C(F)(F)F [Perfluorooctanamidine]
Method: as §1

[1] = compound: O=C(O)C(F)(F)C(F)(F)C(F)(F)C(F)(F)C(F)(F)C(F)(F)C(F)(F)C(F)(F)Cl [9-Chloro-perfluorononanoic acid]
Method: as §1

Perfluorohexanoic acid = compound: O=C(O)C(F)(F)C(F)(F)C(F)(F)C(F)(F)C(F)(F)F [Perfluorohexanoic acid]
Method: as §1

[2] = compound: O=C(O)CCC(F)(F)C(F)(F)C(F)(F)C(F)(F)C(F)(F)F [2H,2H,3H,3H-Perfluorooctanoic acid]
Method: as §1

[3] = compound: O=S(=O)(O)C(F)(F)C(F)(F)C(F)(F)C(F)(F)C(F)(F)C(F)(F)C(F)(F)C(F)(F)F [Potassium perfluorooctanesulfonate]
Method: as §1

[4] = compound: OCC(F)(F)C(F)(F)C(F)(F)C(F)(F)C(F)(F)C(F)F [1H,1H,7H-Dodecafluoro-1-heptanol]
Method: as §1

Row | Test System | level (log10) (1-(Perfluorohexyl)octane; 6700 nM) | level (log10) (1-(Perfluorohexyl)octane; 20000 nM) | level (log10) (Perfluorooctanamidine; 6700 nM) | level (log10) (Perfluorooctanamidine; 20000 nM) | level (log10) (Perfluorooctanamidine; 60000 nM) | level (log10) ([1]; 6700 nM) | level (log10) ([1]; 20000 nM) | level (log10) (Perfluorohexanoic acid; 6700 nM) | level (log10) (Perfluorohexanoic acid; 20000 nM) | level (log10) (Perfluorohexanoic acid; 60000 nM) | level (log10) ([2]; 6700 nM) | level (log10) ([2]; 20000 nM) | level (log10) ([2]; 60000 nM) | level (log10) ([3]; 6700 nM) | level (log10) ([3]; 20000 nM) | level (log10) ([3]; 60000 nM) | level (log10) ([4]; 6700 nM) | level (log10) ([4]; 20000 nM) | level (log10) ([4]; 60000 nM)
1 | MyoF:MMP-1 | -0.002 ± 0.017 | -0.01 ± 0.0085 | -0.025 ± 0.024 | -0.01 | 0.062 | -0.028 ± 0.03 | -0.0585 ± 0.0064 | -0.0115 ± 0.0035 | -0.0055 ± 0.019 | 0.0235 ± 0.025 | -0.017 ± 0.041 | -0.044 ± 0.0099 | -0.007 ± 0.033 | -0.04 ± 0.021 | -0.047 ± 0.031 | 0.0305 ± 0.044 | -0.025 ± 0.035 | -0.029 ± 0.021 | -0.0015 ± 0.012
2 | MyoF:PAI-I | -0.008 ± 0.0014 | -0.007 ± 0.0042 | 0.0015 ± 0.0064 | -0.0075 ± 0.013 | 0.021 | -0.0065 ± 0.0078 | -0.0185 ± 0.011 | 0.0025 ± 0.005 | 0.002 ± 0.0028 | 0.009 | -0.009 ± 0.0028 | -0.0155 ± 0.005 | -0.0025 ± 0.005 | 0.003 ± 0.025 | -0.006 ± 0.0014 | -0.0065 ± 0.0064 | -0.0045 ± 0.013 | -0.0015 ± 0.011 | 0.007 ± 0.0057
3 | MyoF:SRB | 0.011 ± 0.016 | 0.006 ± 0.0042 | 0.007 ± 0.0028 | -0.003 ± 0.0042 | 0.013 | -0.004 | -0.0605 ± 0.005 | 0.009 ± 0.0014 | 0.008 ± 0.0085 | 0.007 ± 0.0057 | -0.002 ± 0.0057 | -0.0035 ± 0.0064 | -0.0065 ± 0.015 | -0.001 ± 0.011 | -0.0085 ± 0.0035 | -0.0145 ± 0.016 | 0.001 ± 0.0085 | -0.0025 ± 0.00071 | -0.007 ± 0.0085
4 | MyoF:TIMP-1 | -0.0265 ± 0.015 | -0.0465 ± 0.023 | 0.0185 ± 0.011 | 0.041 | 0.123 | -0.0445 ± 0.063 | -0.006 ± 0.057 | 0.0085 ± 0.0021 | -0.006 ± 0.0042 | 0.0245 ± 0.0064 | -0.035 ± 0.088 | -0.0365 ± 0.087 | -0.0155 ± 0.071 | 0.069 ± 0.02 | 0.0605 ± 0.03 | 0.111 ± 0.0021 | -0.013 ± 0.018 | -0.0025 ± 0.023 | -0.0065 ± 0.046
5 | MyoF:alpha-SM Actin | -0.0125 ± 0.032 | -0.0095 ± 0.0078 | 0.0015 ± 0.054 | -0.009 ± 0.042 | 0.066 | -0.009 ± 0.028 | -0.022 ± 0.013 | -0.021 ± 0.016 | 0.011 ± 0.0099 | 0.013 ± 0.037 | 0.048 ± 0.024 | 0.017 ± 0.013 | 0.0205 ± 0.061 | -0.0215 ± 0.079 | -0.027 ± 0.075 | -0.0175 ± 0.066 | -0.012 ± 0.0014 | 0.0015 ± 0.005 | -0.0115 ± 0.011
6 | MyoF:bFGF | -0.0025 ± 0.012 | 0.0045 ± 0.005 | -0.0085 ± 0.032 | -0.0115 ± 0.03 | 0.044 | -0.003 ± 0.023 | 0.0085 ± 0.011 | 0.0005 ± 0.005 | -0.0105 ± 0.019 | 0.0005 ± 0.021 | -0.013 ± 0.017 | -0.011 ± 0.0085 | -0.008 ± 0.021 | -0.0105 ± 0.025 | -0.0195 ± 0.023 | -0.019 ± 0.028 | 0.0085 ± 0.0064 | 0.0065 ± 0.015 | 0.0065 ± 0.013
